Laboratory results reported in ChEMBL document CHEMBL1137503, “Structure-based design, synthesis, and biological evaluation of peptidomimetic SARS-CoV 3CLpro inhibitors” (Bioorg Med Chem Lett, 2007).

What was measured:
SARS-CoV = experiment: Antiviral activity against SARS coronavirus; type: functional, organism-based; conditions: Severe acute respiratory syndrome-related coronavirus
[1] = target: Replicase polyprotein 1ab (Severe acute respiratory syndrome-related coronavirus, UniProt P0C6X7); experiment: Inhibition of SARS-CoV 3C-like protease by FRET based microplate assay

Compound | IC50 (SARS-CoV) [µM] | IC50 [1] [µM]
CCOC(=O)/C=C/[C@H](C[C@@H]1CCNC1=O)NC(=O)[C@@H](CC(=O)[C@@H](NC(=O)c1cc(C)on1)C(C)C)Cc1ccccc1 | 45 | 870
CCOC(=O)/C=C/[C@H](C[C@@H]1CCNC1=O)NC(=O)[C@H](CC=C(C)C)CC(=O)[C@@H](NC(=O)c1cc(C)on1)C(C)C | 70 | 800
CCOC(=O)/C=C/[C@H](C[C@@H]1CCNC1=O)NC(=O)[C@H](Cc1ccccc1)NC(=O)[C@@H](NC(=O)[C@H](CO)NC(=O)OC(C)(C)C)C(C)C | 100 | 15
CCOC(=O)/C=C/[C@H](C[C@@H]1CCNC1=O)NC(=O)[C@H](Cc1ccccc1)NC(=O)[C@@H](NC(=O)c1cc(C)on1)C(C)C |  | 300
CCOC(=O)/C=C/[C@H](C[C@@H]1CCNC1=O)NC(=O)[C@H](CC=C(C)C)CC(=O)[C@@H](NC(=O)[C@H](CO)NC(=O)OC(C)(C)C)C(C)C | 75 | 80
CCOC(=O)/C=C/[C@H](C[C@@H]1CCNC1=O)NC(=O)[C@H](CC(C)C)NC(=O)[C@@H](NC(=O)c1cc(C)on1)C(C)C |  | 200
CCOC(=O)/C=C/[C@H](C[C@@H]1CCNC1=O)NC(=O)[C@H](CC(C)C)NC(=O)[C@@H](NC(=O)[C@H](CO)NC(=O)OC(C)(C)C)C(C)C | 100 | 10
